Test results from patent US10865208B2, “ATG7 inhibitors and the uses thereof” (Millennium Pharmaceuticals, Inc., priority 2016, dated 2020).

Biological target: recombinant human His-ATG7 enzyme (Homo sapiens (Human), UniProt O95352)
Assay: ATG7 Enzyme Assay (HTRF/FRET, ATG3-GST and Flag-Gabarap)
Format: biochemical
Conditions: for inhibition at 0.111 µM: Concentration 0.111 μM, read-out: Percent Inhibition
Outline: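 0.15 nM His-ATG7 was reacted with 5 nM ATG3-GST, 5 nM Flag-Gabarap and 10 μM ATP in HEPES pH 7.5 containing MgCl2, GSH and TCEP for 105 min at 24° C, then stopped with EDTA/KF. Eu-anti-Flag and anti-GST-APC HTRF was read after 2 h. Results are given as single-concentration % inhibition or IC50.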

recombinant human His-ATG7 enzyme, sequence (O95352 whole entry): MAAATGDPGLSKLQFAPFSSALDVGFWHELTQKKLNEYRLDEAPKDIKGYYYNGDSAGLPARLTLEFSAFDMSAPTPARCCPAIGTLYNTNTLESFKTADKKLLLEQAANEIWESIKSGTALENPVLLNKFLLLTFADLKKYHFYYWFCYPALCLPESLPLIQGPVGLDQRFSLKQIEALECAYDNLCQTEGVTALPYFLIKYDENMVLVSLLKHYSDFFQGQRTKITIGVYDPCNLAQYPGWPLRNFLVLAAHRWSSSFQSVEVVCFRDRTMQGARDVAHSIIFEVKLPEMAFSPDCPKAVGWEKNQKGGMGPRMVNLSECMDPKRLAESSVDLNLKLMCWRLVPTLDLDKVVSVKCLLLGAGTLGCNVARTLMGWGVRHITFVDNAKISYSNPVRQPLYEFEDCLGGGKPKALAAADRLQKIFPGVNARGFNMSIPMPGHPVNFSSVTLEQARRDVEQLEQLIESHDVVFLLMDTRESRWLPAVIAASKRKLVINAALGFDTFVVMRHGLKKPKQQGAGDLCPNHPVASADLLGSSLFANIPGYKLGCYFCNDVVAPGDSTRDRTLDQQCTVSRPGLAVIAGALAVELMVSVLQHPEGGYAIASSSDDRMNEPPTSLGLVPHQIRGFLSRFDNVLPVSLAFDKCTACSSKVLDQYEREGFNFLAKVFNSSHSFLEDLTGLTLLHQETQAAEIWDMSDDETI

Compound: Cc1ccc(Sc2nn([C@H]3C[C@H](O)[C@@H](COS(N)(=O)=O)O3)c3ncnc(N)c23)cc1 [Compound I-193, [(2R,3S,5R)-5-{4-amino-3-[(4-methylphenyl)sulfanyl]-1H-pyrazolo[3,4-d]pyrimidin-1-yl}-3-hydroxytetrahydrofuran-2-yl]methyl sulfamate]
- IC50: 0.1 to 0.5 µM
- inhibition at 0.111 µM: 46%

Compound: Nc1ncnc2c1c(Sc1ccccn1)nn2[C@H]1C[C@H](O)[C@@H](COS(N)(=O)=O)O1 [Compound I-194, {(2R,3S,5R)-5-[4-amino-3-(pyridin-2-ylsulfanyl)-1H-pyrazolo[3,4-d]pyrimidin-1-yl]-3-hydroxytetrahydrofuran-2-yl}methyl sulfamate]
- IC50: 0.02 to 0.05 µM
- inhibition at 0.111 µM: 79%

Compound: Nc1ncnc2c1c(OC(F)F)nn2[C@H]1C[C@H](O)[C@@H](COS(N)(=O)=O)O1 [Compound I-195, {(2R,3S,5R)-5-[4-amino-3-(difluoromethoxy)-1H-pyrazolo[3,4-d]pyrimidin-1-yl]-3-hydroxytetrahydrofuran-2-yl}methyl Sulfamate]
- IC50: 0.05 to 0.1 µM
- inhibition at 0.111 µM: 53%

Compound: Cc1ccc(Sc2nn([C@H]3C[C@H](O)[C@@H](COS(N)(=O)=O)O3)c3ncnc(N)c23)cc1C [Compound I-196, [(2R,3S,5R)-5-{4-amino-3-[(3,4-dimethylphenyl)sulfanyl]-1H-pyrazolo[3,4-d]pyrimidin-1-yl}-3-hydroxytetrahydrofuran-2-yl]methyl sulfamate]
- IC50: 0.05 to 0.1 µM
- inhibition at 0.111 µM: 65%

Compound: Nc1ncnc2c1c(Sc1ccc(OC(F)(F)F)cc1)nn2[C@H]1C[C@H](O)[C@@H](COS(N)(=O)=O)O1 [Compound I-197, [(2R,3S,5R)-5-(4-amino-3-{[4-(trifluoromethoxy)phenyl]sulfanyl}-1H-pyrazolo[3,4-d]pyrimidin-1-yl)-3-hydroxytetrahydrofuran-2-yl]methyl sulfamate]
- IC50: 0.1 to 0.5 µM
- inhibition at 0.111 µM: 45%

Compound: Nc1ncnc2c1c(Sc1cccc(OC(F)(F)F)c1)nn2[C@H]1C[C@H](O)[C@@H](COS(N)(=O)=O)O1 [Compound I-198, [(2R,3S,5R)-5-(4-amino-3-{[3-(trifluoromethoxy)phenyl]sulfanyl}-1H-pyrazolo[3,4-d]pyrimidin-1-yl)-3-hydroxytetrahydrofuran-2-yl]methyl sulfamate]
- IC50: 0.1 to 0.5 µM
- inhibition at 0.111 µM: 42%

Compound: COc1cccc(Sc2nn([C@H]3C[C@H](O)[C@@H](COS(N)(=O)=O)O3)c3ncnc(N)c23)c1 [Compound I-199, [(2R,3S,5R)-5-{4-amino-3-[(3-methoxyphenyl)sulfanyl]-1H-pyrazolo[3,4-d]pyrimidin-1-yl}-3-hydroxytetrahydrofuran-2-yl]methyl sulfamate]
- IC50: 0.02 to 0.05 µM
- inhibition at 0.111 µM: 74%

Compound: CSc1nn([C@H]2C[C@H](O)[C@@H](COS(N)(=O)=O)O2)c2ncnc(N)c12 [Compound I-200, {(2R,3S,5R)-5-[4-amino-3-(methylsulfanyl)-1H-pyrazolo[3,4-d]pyrimidin-1-yl]-3-hydroxytetrahydrofuran-2-yl}methyl Sulfamate]
- IC50: 0.02 to 0.05 µM
- inhibition at 0.111 µM: 70%

Compound: Nc1ncnc2c1c(Sc1ccc3c(c1)OCCO3)nn2[C@H]1C[C@H](O)[C@@H](COS(N)(=O)=O)O1 [Compound I-201, {(2R,3S,5R)-5-[4-amino-3-(2,3-dihydro-1,4-benzodioxin-6-ylsulfanyl)-1H-pyrazolo[3,4-d]pyrimidin-1-yl]-3-hydroxytetrahydrofuran-2-yl}methyl sulfamate]
- IC50: 0.02 to 0.05 µM
- inhibition at 0.111 µM: 68%

Compound: Nc1ncnc2c1c(SCC1CC1)nn2[C@H]1C[C@H](O)[C@@H](COS(N)(=O)=O)O1 [Compound I-202, [(2R,3S,5R)-5-{4-amino-3-[(cyclopropylmethyl)sulfanyl]-1H-pyrazolo[3,4-d]pyrimidin-1-yl}-3-hydroxytetrahydrofuran-2-yl]methyl Sulfamate]
- IC50: 0.05 to 0.1 µM
- inhibition at 0.111 µM: 62%

Compound: Nc1ncnc2c1c(Sc1cc3c(cc1F)CCC3)nn2[C@H]1C[C@H](O)[C@@H](COS(N)(=O)=O)O1 [Compound I-203, [(2R,3S,5R)-5-{4-amino-3-[(6-fluoro-2,3-dihydro-1H-inden-5-yl)sulfanyl]-1H-pyrazolo[3,4-d]pyrimidin-1-yl}-3-hydroxytetrahydrofuran-2-yl]methyl Sulfamate]
- IC50: 0.05 to 0.1 µM
- inhibition at 0.111 µM: 58%

Compound: Nc1ncnc2c1c(SCc1cc3ccccc3s1)nn2[C@H]1C[C@H](O)[C@@H](COS(N)(=O)=O)O1 [Compound I-204, [(2R,3S,5R)-5-{4-amino-3-[(1-benzothiophen-2-ylmethyl)sulfanyl]-1H-pyrazolo[3,4-d]pyrimidin-1-yl}-3-hydroxytetrahydrofuran-2-yl]methyl sulfamate]
- IC50: 0.1 to 0.5 µM
- inhibition at 0.111 µM: 50%

Compound: Cc1cccc(Sc2nn([C@H]3C[C@H](O)[C@@H](COS(N)(=O)=O)O3)c3ncnc(N)c23)c1 [Compound I-205, [(2R,3S,5R)-5-{4-amino-3-[(3-methylphenyl)sulfanyl]-1H-pyrazolo[3,4-d]pyrimidin-1-yl}-3-hydroxytetrahydrofuran-2-yl]methyl sulfamate]
- IC50: 0.05 to 0.1 µM
- inhibition at 0.111 µM: 55%

Compound: Nc1ncnc2c1c(Sc1cccc(F)c1)nn2[C@H]1C[C@H](O)[C@@H](COS(N)(=O)=O)O1 [Compound I-206, [(2R,3S,5R)-5-{4-amino-3-[(3-fluorophenyl)sulfanyl]-1H-pyrazolo[3,4-d]pyrimidin-1-yl}-3-hydroxytetrahydrofuran-2-yl]methyl sulfamate]
- IC50: 0.1 to 0.5 µM
- inhibition at 0.111 µM: 44%

Compound: COc1ccc(Sc2nn([C@H]3C[C@H](O)[C@@H](COS(N)(=O)=O)O3)c3ncnc(N)c23)cc1OC [Compound I-207, [(2R,3S,5R)-5-{4-amino-3-[(3,4-dimethoxyphenyl)sulfanyl]-1H-pyrazolo[3,4-d]pyrimidin-1-yl}-3-hydroxytetrahydrofuran-2-yl]methyl sulfamate]
- IC50: 0.05 to 0.1 µM
- inhibition at 0.111 µM: 65%

Compound: Cc1csc(Sc2nn([C@H]3C[C@H](O)[C@@H](COS(N)(=O)=O)O3)c3ncnc(N)c23)n1 [Compound I-208, [(2R,3S,5R)-5-{4-amino-3-[(4-methyl-1,3-thiazol-2-yl)sulfanyl]-1H-pyrazolo[3,4-d]pyrimidin-1-yl}-3-hydroxytetrahydrofuran-2-yl]methyl sulfamate]
- IC50: 0.1 to 0.5 µM
- inhibition at 0.111 µM: 44%

Compound: Nc1ncnc2c1c(C(F)(F)F)nn2[C@H]1C[C@H](O)[C@H](COS(N)(=O)=O)O1 [Compound I-209, {(2S,3S,5R)-5-[4-amino-3-(trifluoromethyl)-1H-pyrazolo[3,4-d]pyrimidin-1-yl]-3-hydroxytetrahydrofuran-2-yl}methyl Sulfamate]
- IC50: 0.1 to 0.5 µM
- inhibition at 0.111 µM: 42%

Compound: Nc1ncnc2c1c(Sc1ccc3ccccc3c1)nn2[C@H]1C[C@H](O)[C@H](COS(N)(=O)=O)O1 [Compound I-210, {(2S,3S,5R)-5-[4-amino-3-(2-naphthylsulfanyl)-1H-pyrazolo[3,4-d]pyrimidin-1-yl]-3-hydroxytetrahydrofuran-2-yl}methyl Sulfamate]
- IC50: 0.1 to 0.5 µM
- inhibition at 0.111 µM: 35%

Compound: CCc1nn([C@H]2C[C@H](O)[C@H](COS(N)(=O)=O)O2)c2ncnc(N)c12 [Compound I-212, [(2S,3S,5R)-5-(4-amino-3-ethyl-1H-pyrazolo[3,4-d]pyrimidin-1-yl)-3-hydroxytetrahydrofuran-2-yl]methylsulfamate]
- inhibition at 0.111 µM: 7%

Compound: CCSc1nn([C@H]2C[C@H](O)[C@H](COS(N)(=O)=O)O2)c2ncnc(N)c12 [Compound I-213, {(2S,3S,5R)-5-[4-amino-3-(ethylsulfanyl)-1H-pyrazolo[3,4-d]pyrimidin-1-yl]-3-hydroxytetrahydrofuran-2-yl}methyl sulfamate]
- IC50: 0.1 to 0.5 µM
- inhibition at 0.111 µM: 46%

Compound: Cc1ccc(Sc2nn([C@H]3C[C@H](O)[C@H](COS(N)(=O)=O)O3)c3ncnc(N)c23)cc1 [Compound I-214, [(2S,3S,5R)-5-{4-amino-3-[(4-methylphenyl)sulfanyl]-1H-pyrazolo[3,4-d]pyrimidin-1-yl}-3-hydroxytetrahydrofuran-2-yl]methyl sulfamate]
- IC50: 0.1 to 0.5 µM
- inhibition at 0.111 µM: 43%

Compound: Nc1ncnc2c1c(Sc1ccccc1F)nn2[C@H]1C[C@H](O)[C@H](COS(N)(=O)=O)O1 [Compound I-215, [(2S,3S,5R)-5-{4-amino-3-[(2-fluorophenyl)sulfanyl]-1H-pyrazolo[3,4-d]pyrimidin-1-yl}-3-hydroxytetrahydrofuran-2-yl]methyl sulfamate]
- IC50: 0.1 to 0.5 µM
- inhibition at 0.111 µM: 45%

Compound: Nc1ncnc2c1c(Sc1ccc3c(c1)CCC3)nn2[C@H]1C[C@H](O)[C@H](COS(N)(=O)=O)O1 [Compound I-216, {(2S,3S,5R)-5-[4-amino-3-(2,3-dihydro-1H-inden-5-ylsulfanyl)-1H-pyrazolo[3,4-d]pyrimidin-1-yl]-3-hydroxytetrahydrofuran-2-yl}methyl sulfamate]
- IC50: 0.1 to 0.5 µM
- inhibition at 0.111 µM: 41%

Compound: Nc1ncnc2c1c(C(F)F)nn2[C@H]1C[C@H](O)[C@H](COS(N)(=O)=O)O1 [Compound I-217, {(2S,3S,5R)-5-[4-amino-3-(difluoromethyl)-1H-pyrazolo[3,4-d]pyrimidin-1-yl]-3-hydroxytetrahydrofuran-2-yl}methyl Sulfamate]
- IC50: 0.1 to 0.5 µM
- inhibition at 0.111 µM: 34%

Compound: Cc1nn([C@H]2C[C@H](O)[C@H](COS(N)(=O)=O)O2)c2ncnc(N)c12 [Compound I-218, [(2S,3S,5R)-5-(4-amino-3-methyl-1H-pyrazolo[3,4-d]pyrimidin-1-yl)-3-hydroxytetrahydrofuran-2-yl]methyl Sulfamate]
- IC50: > 0.5 µM
- inhibition at 0.111 µM: 8%

Compound: CSc1nn([C@H]2C[C@H](O)[C@H](COS(N)(=O)=O)O2)c2ncnc(N)c12 [Compound I-219, {(2S,3S,5R)-5-[4-amino-3-(methylsulfanyl)-1H-pyrazolo[3,4-d]pyrimidin-1-yl]-3-hydroxytetrahydrofuran-2-yl}methyl Sulfamate]
- IC50: 0.1 to 0.5 µM
- inhibition at 0.111 µM: 48%
